Patent US20080153896A1, “Polymorphic Forms of an HMG-CoA Reductase Inhibitor and Uses Thereof” (priority 2006, published 2008)

Assay: Stability (integrity) testing of amorphous and polymorphic form under storage conditions, RP-HPLC
Type: physicochemical
Design: key to Impurity RRT 0.738 / Impurity RRT 0.949 / Impurity RRT 1.050 / Impurity RRT 1.550 / Impurity RRT 0.136 / Impurity RRT 0.720 / Impurity RRT 0.706 / Impurity RRT 1.18 / Impurity RRT 1.826: % of total UV absorption (HPLC peak area); Impurity RRT 1.104 / Impurity RRT 1.698: unit not given beside the values
Conditions: for Total: in %
Procedure: The integrity of the different forms of the (3R, 5R)-7-[2-(4-fluorophenyl)-5-isopropyl-3-phenyl-4-[(4-hydroxymethylphenylamino)carbonyl]-pyrrol-1-yl]-3,5-dihydroxy-heptanoic acid, hemi calcium salt, was tested under different atmospheric conditions to determine the stability of the amorphous and polymorphic form of the drug in various storage environments. Reversed Phase-HPLC (RP-HPLC) was used to separate (3R, 5R)-7-[2-(4-fluorophenyl)-5-isopropyl-3-phenyl-4-[(4-hydroxymethylphenylamino)carbonyl]-pyrrol-1-yl]-3,5-dihydroxy-heptanoic acid, hemi calcium salt, from smaller molecules representing breakdown products as well as oxidized drug. The relative amount of the drug was reported as a percent of total absorption by UV. The total peak area of all UV absorption impurities was used to define total impurity of the drug. Impurities are defined by their relative retention time (RRT) compared to native drug. Samples were injected onto a C18 column using standard temperature, gradient and run-time conditions.
The results of this integrity testing for the amorphous form of (3R, 5R)-7-[2-(4-fluorophenyl)-5-isopropyl-3-phenyl-4-[(4-hydroxymethylphenylamino)carbonyl]-pyrrol-1-yl]-3,5-dihydroxy-heptanoic acid, hemi calcium salt, is shown in Table 5.
Three separate batches of polymorphic Form I of (3R, 5R)-7-[2-(4-fluorophenyl)-5-isopropyl-3-phenyl-4-[(4-hydroxymethylphenylamino)carbonyl]-pyrrol-1-yl]-3,5-dihydroxy-heptanoic acid, hemi calcium salt, were prepared and tested under the same atmospheric conditions described for the amorphous form.

CC(C)c1c(C(=O)Nc2ccc(CO)cc2)c(-c2ccccc2)c(-c2ccc(F)cc2)n1CC[C@@H](O)C[C@@H](O)CC(=O)[O-].CC(C)c1c(C(=O)Nc2ccc(CO)cc2)c(-c2ccccc2)c(-c2ccc(F)cc2)n1CC[C@@H](O)C[C@@H](O)CC(=O)[O-].[Ca+2] [PP00204, (3R, 5R)-7-[2-(4-fluorophenyl)-5-isopropyl-3-phenyl-4-[(4-hydroxymethylphenylamino)carbonyl]-pyrrol-1-yl]-3,5-dihydroxy-heptanoic acid, hemi calcium salt]
Impurity RRT 0.731 (5° C. 1 month): 0.030
Impurity RRT 0.832 (5° C. 1 month): 0.034
Impurity RRT 0.876 (5° C. 1 month): 0.150
Impurity RRT 0.952 (5° C. 1 month): 0.040
Impurity RRT 0.965 (5° C. 1 month): 0.532
Impurity RRT 0.974 (5° C. 1 month): 0.052
Impurity RRT 0.991 (5° C. 1 month): 0.022
Impurity RRT 1.024 (5° C. 1 month): 0.459
Impurity RRT 1.041 (5° C. 1 month): 0.585
Total (5° C. 1 month): 1.904
Impurity RRT 0.885 (5° C. 2 months): 0.177
Impurity RRT 0.952 (5° C. 2 months): 0.048
Impurity RRT 0.965 (5° C. 2 months): 0.501
Impurity RRT 0.974 (5° C. 2 months): 0.067
Impurity RRT 0.991 (5° C. 2 months): 0.029
Impurity RRT 1.024 (5° C. 2 months): 0.508
Impurity RRT 1.041 (5° C. 2 months): 0.604
Total (5° C. 2 months): 1.934
Impurity RRT 0.892 (5° C. 3 months): 0.161
Impurity RRT 0.965 (5° C. 3 months): 0.550
Impurity RRT 0.981 (5° C. 3 months): 0.058
Impurity RRT 1.024 (5° C. 3 months): 0.506
Impurity RRT 1.041 (5° C. 3 months): 0.635
Total (5° C. 3 months): 1.91
Impurity RRT 0.731 (5° C. 6 months): 0.037
Impurity RRT 0.832 (5° C. 6 months): 0.028
Impurity RRT 0.876 (5° C. 6 months): 0.014
Impurity RRT 0.892 (5° C. 6 months): 0.016
Impurity RRT 0.952 (5° C. 6 months): 0.024
Impurity RRT 0.965 (5° C. 6 months): 0.552
Impurity RRT 1.024 (5° C. 6 months): 0.582
Impurity RRT 1.041 (5° C. 6 months): 0.592
Impurity RRT 1.074 (5° C. 6 months): 0.028
Total (5° C. 6 months): 1.873
Impurity RRT 0.885 (25° C./60% RH 3 months): 0.145
Impurity RRT 0.892 (25° C./60% RH 3 months): 0.212
Impurity RRT 0.965 (25° C./60% RH 3 months): 0.542
Impurity RRT 0.981 (25° C./60% RH 3 months): 0.058
Impurity RRT 1.024 (25° C./60% RH 3 months): 0.518
Impurity RRT 1.041 (25° C./60% RH 3 months): 0.648
Total (25° C./60% RH 3 months): 2.123
Impurity RRT 0.731 (25° C./60% RH 6 months): 0.031
Impurity RRT 0.832 (25° C./60% RH 6 months): 0.029
Impurity RRT 0.876 (25° C./60% RH 6 months): 0.133
Impurity RRT 0.892 (25° C./60% RH 6 months): 0.124
Impurity RRT 0.952 (25° C./60% RH 6 months): 0.037
Impurity RRT 0.965 (25° C./60% RH 6 months): 0.546
Impurity RRT 1.024 (25° C./60% RH 6 months): 0.618
Impurity RRT 1.041 (25° C./60% RH 6 months): 0.593
Impurity RRT 1.074 (25° C./60% RH 6 months): 0.068
Impurity RRT 1.104 (25° C./60% RH 6 months): 0.037
Total (25° C./60% RH 6 months): 2.216
Impurity RRT 0.885 (30° C./55% RH 6 months): 0.187
Impurity RRT 0.892 (30° C./55% RH 6 months): 0.168
Impurity RRT 0.965 (30° C./55% RH 6 months): 0.699
Impurity RRT 1.024 (30° C./55% RH 6 months): 0.693
Impurity RRT 1.041 (30° C./55% RH 6 months): 0.777
Impurity RRT 1.074 (30° C./55% RH 6 months): 0.103
Impurity RRT 1.104 (30° C./55% RH 6 months): 0.032
Total (30° C./55% RH 6 months): 2.659
Impurity RRT 0.731 (30° C./65% RH 1 month): 0.038
Impurity RRT 0.832 (30° C./65% RH 1 month): 0.037
Impurity RRT 0.876 (30° C./65% RH 1 month): 0.145
Impurity RRT 0.892 (30° C./65% RH 1 month): 0.038
Impurity RRT 0.952 (30° C./65% RH 1 month): 0.042
Impurity RRT 0.965 (30° C./65% RH 1 month): 0.512
Impurity RRT 0.974 (30° C./65% RH 1 month): 0.054
Impurity RRT 0.991 (30° C./65% RH 1 month): 0.018
Impurity RRT 1.024 (30° C./65% RH 1 month): 0.464
Impurity RRT 1.041 (30° C./65% RH 1 month): 0.587
Impurity RRT 1.074 (30° C./65% RH 1 month): 0.021
Total (30° C./65% RH 1 month): 1.956
Impurity RRT 0.885 (30° C./65% RH 2 months): 0.154
Impurity RRT 0.892 (30° C./65% RH 2 months): 0.119
Impurity RRT 0.952 (30° C./65% RH 2 months): 0.050
Impurity RRT 0.965 (30° C./65% RH 2 months): 0.505
Impurity RRT 0.974 (30° C./65% RH 2 months): 0.042
Impurity RRT 0.991 (30° C./65% RH 2 months): 0.022
Impurity RRT 1.024 (30° C./65% RH 2 months): 0.524
Impurity RRT 1.041 (30° C./65% RH 2 months): 0.611
Total (30° C./65% RH 2 months): 2.027
Impurity RRT 0.832 (30° C./65% RH 3 months): 0.046
Impurity RRT 0.892 (30° C./65% RH 3 months): 0.184
Impurity RRT 0.965 (30° C./65% RH 3 months): 0.542
Impurity RRT 0.981 (30° C./65% RH 3 months): 0.057
Impurity RRT 1.024 (30° C./65% RH 3 months): 0.516
Impurity RRT 1.041 (30° C./65% RH 3 months): 0.638
Total (30° C./65% RH 3 months): 1.983
Impurity RRT 0.731 (40° C./75% RH 1 month): 0.039
Impurity RRT 0.832 (40° C./75% RH 1 month): 0.034
Impurity RRT 0.876 (40° C./75% RH 1 month): 0.125
Impurity RRT 0.892 (40° C./75% RH 1 month): 0.055
Impurity RRT 0.965 (40° C./75% RH 1 month): 0.526
Impurity RRT 0.974 (40° C./75% RH 1 month): 0.071
Impurity RRT 0.991 (40° C./75% RH 1 month): 0.024
Impurity RRT 1.024 (40° C./75% RH 1 month): 0.464
Impurity RRT 1.041 (40° C./75% RH 1 month): 0.565
Impurity RRT 1.074 (40° C./75% RH 1 month): 0.032
Total (40° C./75% RH 1 month): 1.955
Impurity RRT 0.738 (40° C./75% RH 2 months): 0.042
Impurity RRT 0.885 (40° C./75% RH 2 months): 0.159
Impurity RRT 0.892 (40° C./75% RH 2 months): 0.127
Impurity RRT 0.949 (40° C./75% RH 2 months): 0.063
Impurity RRT 0.965 (40° C./75% RH 2 months): 0.547
Impurity RRT 0.991 (40° C./75% RH 2 months): 0.027
Impurity RRT 1.024 (40° C./75% RH 2 months): 0.543
Impurity RRT 1.041 (40° C./75% RH 2 months): 0.622
Impurity RRT 1.074 (40° C./75% RH 2 months): 0.077
Total (40° C./75% RH 2 months): 2.207
Impurity RRT 0.892 (40° C./75% RH 3 months): 0.189
Impurity RRT 0.965 (40° C./75% RH 3 months): 0.548
Impurity RRT 0.981 (40° C./75% RH 3 months): 0.065
Impurity RRT 1.024 (40° C./75% RH 3 months): 0.515
Impurity RRT 1.041 (40° C./75% RH 3 months): 0.632
Impurity RRT 1.104 (40° C./75% RH 3 months): 0.074
Total (40° C./75% RH 3 months): 2.023
Impurity RRT 0.731 (40° C./75% RH 6 months): 0.031
Impurity RRT 0.832 (40° C./75% RH 6 months): 0.031
Impurity RRT 0.876 (40° C./75% RH 6 months): 0.152
Impurity RRT 0.892 (40° C./75% RH 6 months): 0.19
Impurity RRT 0.952 (40° C./75% RH 6 months): 0.022
Impurity RRT 0.965 (40° C./75% RH 6 months): 0.497
Impurity RRT 1.024 (40° C./75% RH 6 months): 0.460
Impurity RRT 1.041 (40° C./75% RH 6 months): 0.573
Impurity RRT 1.050 (40° C./75% RH 6 months): 0.094
Impurity RRT 1.074 (40° C./75% RH 6 months): 0.025
Impurity RRT 1.104 (40° C./75% RH 6 months): 0.037
Total (40° C./75% RH 6 months): 2.112
Impurity RRT 0.876 (Initial): 0.146
Impurity RRT 0.965 (Initial): 0.560
Impurity RRT 0.991 (Initial): 0.022
Impurity RRT 1.024 (Initial): 0.464
Impurity RRT 1.041 (Initial): 0.581
Total (Initial): 1.703
